According to ChEMBL document CHEMBL1201862, “PubChem BioAssay data set” (2004):
Blank lines part the entries; values can stand above or below the compound they belong to. Activity calls are given as the source filed them.

What was measured:
SUMO-activating enzyme [1] = target: T1, SUMO-activating enzyme (Homo sapiens, UniProt Q9UBT2); assay: SUMOylation inhibitor hit validation, confirmation, SUMOylation inhibitor project, biochemical, AlphaScreen (AID 2018); format: functional
SUMO-activating enzyme [2] = target: T1, SUMO-activating enzyme; assay: inhibitors of in vitro SUMOylation cascade, primary screen, biochemical, HTRF, uHTS (AID 2006); format: protein-complex assay
[3] = target: NACHT, LRR and PYD domains-containing protein 3 (Homo sapiens, UniProt Q96P20); assay: NALP3 inhibitors in yeast, dose response, luminescent (AID 488799); format: functional
[4] = inhibition of K1F phage lysis, E. coli UTI89, bacterial capsule biogenesis inhibitors, alamar blue (AID 488966); format: functional
[5] = target: Signal transducer and activator of transcription 3 (Homo sapiens, UniProt P40763); assay: STAT3 activators, late-stage profile, late-stage follow-up, cell-based, STAT1 reporter, BCL3 qPCR, cytotoxicity, panel member STAT3 Activation (AID 2049)
Wee1-like protein kinase = Wee1-like protein kinase (Homo sapiens, UniProt P30291); assay: G2/M cell cycle arrest in HeLa, late-stage follow-up, mechanism study for Wee1 degradation inhibitor project, FACS, panel member Wee1 Degradation (AID 2088)
[6] = target: G2/mitotic-specific cyclin-B1 (Homo sapiens, UniProt P14635); assay: G2/M cell cycle arrest in HeLa, late-stage follow-up, mechanism study for Wee1 degradation inhibitor project, FACS, panel member Cyclin B Degradation (AID 2088)
[7] = target: Metabotropic glutamate receptor 4 (Homo sapiens, UniProt Q14833); assay: Modulation of the Metabotropic Glutamate Receptor mGluR4: Potency at human mGluR4. Modulation of intracellular Ca2+ using Fluo-4, AM, in CHO expressing recombinant receptor [Related pubchem assays (depositor defined):AID2437, AID2807]; format: functional, cell-based
Sequence of Metabotropic glutamate receptor 4 (Q14833 whole entry): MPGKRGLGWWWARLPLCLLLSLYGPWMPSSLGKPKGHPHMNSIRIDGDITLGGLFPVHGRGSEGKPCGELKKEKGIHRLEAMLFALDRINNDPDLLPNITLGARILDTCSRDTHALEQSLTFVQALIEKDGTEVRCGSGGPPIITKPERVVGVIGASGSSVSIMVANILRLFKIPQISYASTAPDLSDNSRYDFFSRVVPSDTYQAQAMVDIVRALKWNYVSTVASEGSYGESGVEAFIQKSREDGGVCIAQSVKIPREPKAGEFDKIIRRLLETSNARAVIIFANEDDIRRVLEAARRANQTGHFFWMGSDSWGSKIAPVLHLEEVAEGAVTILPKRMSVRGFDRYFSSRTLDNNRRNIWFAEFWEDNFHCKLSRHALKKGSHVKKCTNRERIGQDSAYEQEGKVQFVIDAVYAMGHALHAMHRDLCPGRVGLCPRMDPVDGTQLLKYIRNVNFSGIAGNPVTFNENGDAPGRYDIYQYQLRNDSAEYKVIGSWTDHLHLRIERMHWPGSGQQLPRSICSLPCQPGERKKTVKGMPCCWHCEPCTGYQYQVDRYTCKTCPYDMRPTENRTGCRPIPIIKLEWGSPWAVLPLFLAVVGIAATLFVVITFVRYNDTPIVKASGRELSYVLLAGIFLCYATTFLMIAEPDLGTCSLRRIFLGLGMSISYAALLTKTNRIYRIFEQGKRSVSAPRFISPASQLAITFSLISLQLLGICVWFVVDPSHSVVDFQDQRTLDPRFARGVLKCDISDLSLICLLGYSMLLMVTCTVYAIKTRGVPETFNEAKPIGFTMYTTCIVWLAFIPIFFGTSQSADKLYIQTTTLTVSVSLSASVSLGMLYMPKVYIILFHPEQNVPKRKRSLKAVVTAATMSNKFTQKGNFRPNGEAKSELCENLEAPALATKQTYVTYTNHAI

T1 sequence (Q9UBE0 whole entry): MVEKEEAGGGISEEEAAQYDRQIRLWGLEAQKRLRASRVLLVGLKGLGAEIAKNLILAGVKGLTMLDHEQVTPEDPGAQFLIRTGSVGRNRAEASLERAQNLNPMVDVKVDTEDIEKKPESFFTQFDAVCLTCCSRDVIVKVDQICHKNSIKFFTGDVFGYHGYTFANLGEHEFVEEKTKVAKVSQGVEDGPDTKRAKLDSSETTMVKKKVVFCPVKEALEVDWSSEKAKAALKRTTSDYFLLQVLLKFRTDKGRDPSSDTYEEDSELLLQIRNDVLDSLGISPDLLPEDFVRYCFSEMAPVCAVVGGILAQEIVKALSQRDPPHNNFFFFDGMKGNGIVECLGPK
T1 sequence (Q9UBT2 whole entry): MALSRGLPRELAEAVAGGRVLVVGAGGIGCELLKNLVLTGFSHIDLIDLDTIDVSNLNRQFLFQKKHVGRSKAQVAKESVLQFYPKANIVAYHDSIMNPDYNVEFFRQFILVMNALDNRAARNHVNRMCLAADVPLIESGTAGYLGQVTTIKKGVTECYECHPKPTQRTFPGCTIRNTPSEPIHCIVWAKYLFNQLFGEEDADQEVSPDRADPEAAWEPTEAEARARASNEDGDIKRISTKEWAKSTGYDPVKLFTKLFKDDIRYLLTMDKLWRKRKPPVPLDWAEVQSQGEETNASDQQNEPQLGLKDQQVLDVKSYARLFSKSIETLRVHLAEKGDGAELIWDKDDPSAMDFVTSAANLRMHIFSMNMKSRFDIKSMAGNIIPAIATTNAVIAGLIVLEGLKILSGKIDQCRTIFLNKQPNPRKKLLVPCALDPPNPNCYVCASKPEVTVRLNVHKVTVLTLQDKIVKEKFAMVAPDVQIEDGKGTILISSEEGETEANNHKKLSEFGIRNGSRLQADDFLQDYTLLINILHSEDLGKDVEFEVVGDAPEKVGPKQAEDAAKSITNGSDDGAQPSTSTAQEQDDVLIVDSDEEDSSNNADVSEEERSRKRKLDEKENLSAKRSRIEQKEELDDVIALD
Sequence of Wee1-like protein kinase (P30291 whole entry): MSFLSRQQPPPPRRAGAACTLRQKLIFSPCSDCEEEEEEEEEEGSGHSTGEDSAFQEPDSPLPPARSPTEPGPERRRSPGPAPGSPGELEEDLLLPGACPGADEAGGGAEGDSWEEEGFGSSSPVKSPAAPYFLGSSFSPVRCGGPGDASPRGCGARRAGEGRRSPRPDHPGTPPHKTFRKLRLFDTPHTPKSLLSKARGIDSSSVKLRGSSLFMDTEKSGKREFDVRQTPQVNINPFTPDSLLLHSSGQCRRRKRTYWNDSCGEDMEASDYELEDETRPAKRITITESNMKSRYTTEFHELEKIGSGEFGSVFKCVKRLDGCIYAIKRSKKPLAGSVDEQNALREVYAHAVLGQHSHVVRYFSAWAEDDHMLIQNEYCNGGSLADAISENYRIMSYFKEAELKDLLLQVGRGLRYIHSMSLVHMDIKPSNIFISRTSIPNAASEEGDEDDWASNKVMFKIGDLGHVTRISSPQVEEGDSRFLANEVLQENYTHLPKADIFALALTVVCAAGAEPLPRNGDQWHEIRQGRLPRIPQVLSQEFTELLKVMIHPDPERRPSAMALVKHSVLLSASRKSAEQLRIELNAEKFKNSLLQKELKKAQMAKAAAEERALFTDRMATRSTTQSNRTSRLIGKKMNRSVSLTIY
Sequence of Signal transducer and activator of transcription 3 (P40763 whole entry): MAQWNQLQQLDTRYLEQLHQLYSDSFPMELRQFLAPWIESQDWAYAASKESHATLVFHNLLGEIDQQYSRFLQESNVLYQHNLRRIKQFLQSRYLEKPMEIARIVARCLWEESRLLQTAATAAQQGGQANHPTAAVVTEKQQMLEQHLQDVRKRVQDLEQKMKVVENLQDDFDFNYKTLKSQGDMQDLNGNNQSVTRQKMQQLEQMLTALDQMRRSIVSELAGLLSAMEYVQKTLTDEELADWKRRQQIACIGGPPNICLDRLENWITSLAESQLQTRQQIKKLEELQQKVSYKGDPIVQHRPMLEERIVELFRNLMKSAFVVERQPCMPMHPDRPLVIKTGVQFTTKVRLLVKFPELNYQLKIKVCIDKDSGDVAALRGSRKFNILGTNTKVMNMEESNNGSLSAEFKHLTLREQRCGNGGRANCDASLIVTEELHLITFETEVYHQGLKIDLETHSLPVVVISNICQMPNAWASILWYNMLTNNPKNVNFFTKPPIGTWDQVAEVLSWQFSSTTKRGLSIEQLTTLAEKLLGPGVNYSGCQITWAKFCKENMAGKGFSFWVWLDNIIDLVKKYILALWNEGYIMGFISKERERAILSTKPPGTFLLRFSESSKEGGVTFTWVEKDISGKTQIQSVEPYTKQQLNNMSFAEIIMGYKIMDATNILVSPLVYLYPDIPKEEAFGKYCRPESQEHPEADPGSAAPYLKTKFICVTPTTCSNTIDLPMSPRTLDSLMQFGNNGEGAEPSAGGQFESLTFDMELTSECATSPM
Sequence of NACHT, LRR and PYD domains-containing protein 3 (Q96P20 whole entry, the tested form may be a part): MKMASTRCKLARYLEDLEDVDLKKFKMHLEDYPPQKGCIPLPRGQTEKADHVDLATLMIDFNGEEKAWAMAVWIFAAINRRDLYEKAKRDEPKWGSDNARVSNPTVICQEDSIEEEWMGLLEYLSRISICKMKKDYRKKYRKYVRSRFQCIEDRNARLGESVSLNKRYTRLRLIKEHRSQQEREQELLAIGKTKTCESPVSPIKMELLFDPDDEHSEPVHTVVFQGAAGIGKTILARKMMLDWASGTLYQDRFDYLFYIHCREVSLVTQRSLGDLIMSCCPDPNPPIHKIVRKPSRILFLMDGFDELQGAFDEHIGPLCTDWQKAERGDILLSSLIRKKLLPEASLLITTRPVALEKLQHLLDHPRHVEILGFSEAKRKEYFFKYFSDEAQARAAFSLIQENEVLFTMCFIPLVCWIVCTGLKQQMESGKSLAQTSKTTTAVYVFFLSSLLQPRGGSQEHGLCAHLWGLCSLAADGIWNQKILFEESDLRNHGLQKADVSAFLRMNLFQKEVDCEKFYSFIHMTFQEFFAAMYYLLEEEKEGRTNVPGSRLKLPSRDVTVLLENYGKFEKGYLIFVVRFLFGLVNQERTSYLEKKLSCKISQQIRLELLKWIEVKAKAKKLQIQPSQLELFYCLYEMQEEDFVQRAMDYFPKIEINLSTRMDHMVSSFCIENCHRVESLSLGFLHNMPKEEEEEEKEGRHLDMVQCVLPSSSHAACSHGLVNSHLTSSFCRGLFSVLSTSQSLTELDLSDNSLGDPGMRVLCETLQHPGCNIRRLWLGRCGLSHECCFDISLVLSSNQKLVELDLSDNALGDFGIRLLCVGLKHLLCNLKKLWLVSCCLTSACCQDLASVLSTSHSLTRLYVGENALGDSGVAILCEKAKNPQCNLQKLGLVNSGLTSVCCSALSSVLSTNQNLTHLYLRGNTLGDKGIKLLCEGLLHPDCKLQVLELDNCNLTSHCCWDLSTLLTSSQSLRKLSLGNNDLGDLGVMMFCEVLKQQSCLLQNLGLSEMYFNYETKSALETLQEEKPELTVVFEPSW
Sequence of G2/mitotic-specific cyclin-B1 (P14635 whole entry): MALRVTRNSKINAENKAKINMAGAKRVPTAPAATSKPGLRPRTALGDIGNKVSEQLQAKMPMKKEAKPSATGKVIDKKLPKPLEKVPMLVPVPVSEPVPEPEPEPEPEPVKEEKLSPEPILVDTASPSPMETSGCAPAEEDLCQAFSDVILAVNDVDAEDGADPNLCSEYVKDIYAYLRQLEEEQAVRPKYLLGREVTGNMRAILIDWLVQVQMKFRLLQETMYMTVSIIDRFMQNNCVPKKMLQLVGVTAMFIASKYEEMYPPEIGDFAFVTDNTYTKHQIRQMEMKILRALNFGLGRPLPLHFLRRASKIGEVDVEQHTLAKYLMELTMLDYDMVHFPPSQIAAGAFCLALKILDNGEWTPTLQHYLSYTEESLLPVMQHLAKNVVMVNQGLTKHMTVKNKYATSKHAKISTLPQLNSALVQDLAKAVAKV

IC50 (SUMO-activating enzyme [1]): 29.9 µM (active)
IC50 (SUMO-activating enzyme [2]): 12 µM (active)
Compound: C=CCOc1c(Br)cc(/C=C2\SC(Nc3ccccc3)=NC2=O)cc1OC

Compound: CN(CC(=O)N1CCc2ccccc2C1)c1ccccc1
IC50 [3]: > 100 µM (inactive)

Compound: CCOc1ccc(Br)cc1CSC(=N)N
IC50 [4]: > 300 µM (active)

Compound: COc1cc(NC(=O)c2cc(C3CC3)on2)cc(OC)c1
EC50 [5]: > 5.57 µM (inactive)

EC50 (Wee1-like protein kinase): > 49.7 µM (inactive)
EC50 [6]: > 49.7 µM (inactive)
Compound: Cc1ccc(NC(=O)CCCOc2cc(=O)n(C)c3ccccc23)c(Cl)c1

Compound: N#Cc1ccc(NC(=O)c2ccccn2)cc1C(F)(F)F
EC50 [7]: 1.77 µM (active)
